These results are taken from PubChem BioAssay (NCI).

Among the test systems are DMS 114 small cell lung; UACC-257 melanoma; M19-MEL melanoma; EKVX NSCLC; SK-OV-3 ovarian; DMS 273 small cell lung; MDA-MB-435; T-47D breast; MCF7 breast; BT-549 breast.
Holding throughout (assay): NCI tumour cell line growth inhibition, 48 h

The structures appear in SMILES notation. “And” between values parts separate entries of the source, which are not always exact repeats. Equal entries are not always repeated.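 Interpolation was linear, between the two tested concentrations surrounding the appropriate level; five concentrations were tested over 48 hours in 96-well plates. Here, GI50 denotes the concentration required for 50% inhibition of growth. TGI is the concentration that stops growth completely.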 Bounds are passed on as bounds.

Take `O=C(Nc1cc([N+](=O)[O-])cc([N+](=O)[O-])c1)OC1C2CCC1C1OC1C2` (stereo not given): the TGI in the assay with DMS 114 small cell lung, in the assay on UACC-257 melanoma, with M19-MEL melanoma, in the assay with EKVX NSCLC and in the assay on SK-OV-3 ovarian was above 50 µM throughout.
On to `CC(C)(C)[Si](Nc1ccccc1)(c1ccccc1)c1ccccc1`, for which the TGI in the assay with DMS 114 small cell lung is 26.3 µM; in the assay on DMS 273 small cell lung it was 27.3 µM; in the assay on UACC-257 melanoma it was 28.4 µM; with M19-MEL melanoma, 28.4 µM; in the assay on EKVX NSCLC, 30.3 µM; in the assay on SK-OV-3 ovarian, 30.9 µM.
`O=C(Nc1ccccc1)OCc1nc2c([nH]1)C(=O)C=CC2=O`: the TGI amounted to 42 µM with DMS 273 small cell lung; 13.7 µM with UACC-257 melanoma; 29.5 µM in the assay with M19-MEL melanoma; 41 µM in the assay with EKVX NSCLC; 29.3 µM in the assay with SK-OV-3 ovarian.
As for `c1ccc([P+](CCC[P+](c2ccccc2)(c2ccccc2)c2ccccc2)(c2ccccc2)c2ccccc2)cc1`, the TGI in the assay on DMS 114 small cell lung is 71 µM; in the assay with MDA-MB-435, above 100 µM; with T-47D breast, 84.9 µM; in the assay on DMS 273 small cell lung, 47.9 µM; in the assay with UACC-257 melanoma it was > 100 µM and 41.1 µM; with MCF7 breast, above 100 µM. Further, the TGI in the assay with M19-MEL melanoma, in the assay on BT-549 breast, in the assay with EKVX NSCLC and in the assay on SK-OV-3 ovarian was above 100 µM throughout. The GI50 is 4.84 µM in the assay with MDA-MB-435; 4.1 µM in the assay on T-47D breast; 2.77 µM in the assay with UACC-257 melanoma; 6.79 µM in the assay on MCF7 breast; 7.44 µM in the assay with BT-549 breast; 69.1 µM with SK-OV-3 ovarian.
Take `CCCCCC/C=C/CCCCCCCc1cccc(O)c1C(=O)O`: the TGI with DMS 114 small cell lung is above 100 µM; in the assay with DMS 273 small cell lung, above 100 µM; in the assay with UACC-257 melanoma, above 100 µM; in the assay with M19-MEL melanoma, above 100 µM; in the assay on EKVX NSCLC, above 100 µM; with SK-OV-3 ovarian, 99.8 µM.
Turning to `COc1ccc(CC(C#N)c2cc(OC)c(OC)c(OC)c2)cc1` (stereo not given), the TGI in the assay on MDA-MB-435 was above 100 µM; in the assay with DMS 273 small cell lung, 0.405 µM; in the assay with UACC-257 melanoma, above 100 µM; with M19-MEL melanoma, above 100 µM; in the assay on BT-549 breast, above 100 µM; in the assay on EKVX NSCLC, above 100 µM.
As to `CO[C@@]12[C@H](COC(N)=O)C3=C(C(=O)C(C)=C(N)C3=O)N1C[C@@H]1N[C@@H]12`, the TGI in the assay with DMS 114 small cell lung is 5.08 µM; in the assay with MDA-MB-435 it was 6.92 µM and 12.7 µM and 15.3 µM; with DMS 273 small cell lung, 3.6 µM; in the assay with UACC-257 melanoma, 5.17 µM and 7.79 µM and 11.2 µM; in the assay on MCF7 breast it was 8.6 µM and 15.1 µM and 47 µM; in the assay on BT-549 breast, 9.38 µM and 6.85 µM and 6.4 µM. The TGI in the assay on EKVX NSCLC is 17.1 µM and 20.8 µM and 31.7 µM; with SK-OV-3 ovarian, 9.83 µM and 18 µM and 7.06 µM. Further, the GI50 is 2.14 µM and 2.91 µM and 1.53 µM in the assay on MDA-MB-435; 2.25 µM and 1.41 µM with T-47D breast; 2.16 µM with UACC-257 melanoma; 0.215 µM and 0.0824 µM in the assay on MCF7 breast; 0.799 µM in the assay with BT-549 breast; 7.98 µM in the assay on EKVX NSCLC. Besides, the GI50 in the assay with SK-OV-3 ovarian is 2.41 µM.
`O/N=C1/C(=C/c2ccc(Cl)cc2)CCCC1C(NO)c1ccc(Cl)cc1` (stereo not given): the TGI was 81.8 µM in the assay on DMS 114 small cell lung; 41.2 µM with DMS 273 small cell lung; 31.6 µM with UACC-257 melanoma; 54.7 µM in the assay on M19-MEL melanoma; 74.8 µM with EKVX NSCLC; above 100 µM in the assay with SK-OV-3 ovarian.
In the case of `C[C@@]1(CBr)C[C@@](C)(/C=C/Cl)[C@@H](Cl)C[C@H]1Cl`, the TGI in the assay on DMS 114 small cell lung was determined as 25.3 µM; in the assay on DMS 273 small cell lung it was 22.8 µM; with UACC-257 melanoma, 24.2 µM; in the assay with M19-MEL melanoma, 25.9 µM; with EKVX NSCLC, 33 µM; in the assay with SK-OV-3 ovarian, 29.9 µM.
On to `CC(=O)OC1C/C(C)=C/[C@H](O)CC(C)/C=C/[C@@]2(C)CCC(C(C)(C)O)C12` (stereo not given in full), for which the TGI with DMS 114 small cell lung, with DMS 273 small cell lung, with UACC-257 melanoma, with M19-MEL melanoma, in the assay on EKVX NSCLC and in the assay with SK-OV-3 ovarian was above 100 µM in each case.
As to `CC(=O)Oc1cc(OC(C)=O)c2cc3c(cc2c1OC(C)=O)C(=O)C1(CCCC1)C3=O`, the TGI with DMS 114 small cell lung was 31.6 µM; with DMS 273 small cell lung, 35.8 µM; in the assay with M19-MEL melanoma it was 32 µM; in the assay on EKVX NSCLC, 38 µM; with SK-OV-3 ovarian, 31.4 µM.
Consider `COc1cc(C(=C2SCCS2)c2nccc3cc(OC)c(OC)cc23)c([N+](=O)[O-])cc1OC`, for which the TGI in the assay with DMS 114 small cell lung, in the assay on DMS 273 small cell lung, with UACC-257 melanoma, with M19-MEL melanoma, with EKVX NSCLC and with SK-OV-3 ovarian was above 100 µM throughout.
For the molecule `O=c1cc(-c2ccc[nH]2)[nH]c2cc3c(cc12)OCO3`, in the assay with DMS 114 small cell lung, the GI50 was 32.5 µM. The TGI in the assay with DMS 114 small cell lung, in the assay on DMS 273 small cell lung, in the assay on UACC-257 melanoma, in the assay on M19-MEL melanoma and with EKVX NSCLC was above 100 µM each time.
On to `CN(/C(=N\O)c1ccccc1)c1ccccc1`, for which the TGI is 86.1 µM in the assay with DMS 114 small cell lung; 50.7 µM in the assay with DMS 273 small cell lung; above 100 µM with UACC-257 melanoma; above 100 µM in the assay with M19-MEL melanoma; 74.3 µM with EKVX NSCLC.
With `C[n+]1ccc2[nH]c3ccccc3c2c1`, the TGI in the assay on DMS 273 small cell lung, with UACC-257 melanoma, in the assay with M19-MEL melanoma, in the assay with EKVX NSCLC and in the assay with SK-OV-3 ovarian was above 100 µM throughout.
As for `CN(C(=O)C1CC1)C1C2CN3CCC(O2)C13` (stereo not given), the TGI in the assay with DMS 114 small cell lung, with DMS 273 small cell lung, with UACC-257 melanoma, with M19-MEL melanoma, with EKVX NSCLC and in the assay with SK-OV-3 ovarian was above 100 µM each time.
`COC(=O)NN=C1C(C)(C)C(=NNC(=O)OC)C1(C)C`: the TGI in the assay on DMS 114 small cell lung is above 56.7 µM; with DMS 273 small cell lung, above 100 µM; with UACC-257 melanoma it was above 100 µM; in the assay on M19-MEL melanoma, above 63.3 µM; in the assay on EKVX NSCLC, above 100 µM; in the assay with SK-OV-3 ovarian it was above 100 µM.
For the molecule `N=C(N)Cn1cnc2ccccc21`, the TGI in the assay on DMS 114 small cell lung, in the assay with UACC-257 melanoma, in the assay on M19-MEL melanoma, with EKVX NSCLC and with SK-OV-3 ovarian was above 100 µM throughout.
For `O/N=C1/C(=C/c2ccccc2)CCCC1C(NO)c1ccccc1` (stereo not given), the TGI with DMS 114 small cell lung, with DMS 273 small cell lung, with UACC-257 melanoma, with M19-MEL melanoma, in the assay with EKVX NSCLC and with SK-OV-3 ovarian was above 100 µM each time.
In the case of `CCN1CCC(O)(c2ccc(Cl)c(Cl)c2)C(C(=O)c2ccc(Cl)c(Cl)c2)C1` (stereo not given), the TGI was determined as 33.9 µM with DMS 114 small cell lung; 34 µM in the assay with DMS 273 small cell lung; 32 µM with UACC-257 melanoma; 33.6 µM with EKVX NSCLC; 32.8 µM with SK-OV-3 ovarian.
With `CCc1ccccc1NC(=O)C1=C(C)NC(C)=C(C(=O)Nc2ccccc2CC)C1c1ccc(NC(C)=O)cc1`, the TGI with DMS 114 small cell lung, in the assay with UACC-257 melanoma, in the assay with M19-MEL melanoma, with EKVX NSCLC and in the assay with SK-OV-3 ovarian was above 100 µM in each case.
As for `Oc1cccc2nc3cc(CN4CCOCC4)c(CN4CCOCC4)cc3nc12`, the TGI with DMS 273 small cell lung is above 100 µM; in the assay on UACC-257 melanoma it was above 100 µM; with M19-MEL melanoma it was 66.5 µM; in the assay on EKVX NSCLC, above 100 µM; in the assay on SK-OV-3 ovarian it was above 100 µM.
On to `CCCCCCCCCCCCCCCCCCOCC1(COP(=O)([O-])OCC[N+](C)(C)C)CCCO1` (stereo not given), for which the TGI in the assay on DMS 114 small cell lung was 18.1 µM; in the assay with DMS 273 small cell lung, 3.13 µM; in the assay on UACC-257 melanoma it was 27.3 µM; in the assay on M19-MEL melanoma, 10.8 µM; with SK-OV-3 ovarian, 27.7 µM.
Regarding `CC(=O)NNc1nc(C)c(C(/C=C/c2ccc(Cl)cc2)=N/NC(=S)NN)s1`, the TGI with DMS 114 small cell lung, in the assay with DMS 273 small cell lung, in the assay on UACC-257 melanoma, in the assay on M19-MEL melanoma, in the assay with EKVX NSCLC and in the assay on SK-OV-3 ovarian was above 100 µM each time.
For the molecule `Cn1c(=O)c2[nH]cnc2n(CC(=O)O)c1=O`, the TGI in the assay on DMS 114 small cell lung, in the assay with DMS 273 small cell lung, in the assay with M19-MEL melanoma, in the assay with EKVX NSCLC and in the assay with SK-OV-3 ovarian was above 100 µM each time.
With `NC(=O)N/N=C1/CCCC/C1=C\c1ccccc1`, the TGI with DMS 114 small cell lung, in the assay on DMS 273 small cell lung, in the assay on UACC-257 melanoma, in the assay on M19-MEL melanoma, in the assay with EKVX NSCLC and in the assay with SK-OV-3 ovarian was above 100 µM each time.
As for `CCC[CH2][Sn]1([CH2]CCC)[O]CC([CH2][Sn]([c]2ccccc2)([c]2ccccc2)[c]2ccccc2)[O]1` (stereo not given), the GI50 in the assay with DMS 114 small cell lung was 3.18 µM; in the assay on UACC-257 melanoma, 12.6 µM; with M19-MEL melanoma, 8.82 µM; in the assay on EKVX NSCLC, 13.4 µM; in the assay with SK-OV-3 ovarian it was 19.1 µM. The TGI in the assay on DMS 114 small cell lung was 13.5 µM; with UACC-257 melanoma it was 26.6 µM; with M19-MEL melanoma, 21.2 µM; with EKVX NSCLC, 26.3 µM; with SK-OV-3 ovarian, 33.2 µM.
`CCCCCCCCCCCCOC(=S)NC`: the TGI was 37.5 µM with DMS 114 small cell lung; 34.4 µM in the assay on DMS 273 small cell lung; 42.2 µM in the assay on UACC-257 melanoma; 36.7 µM in the assay with EKVX NSCLC; 58 µM with SK-OV-3 ovarian.
Regarding `O=C(O)C1=C(Cl)c2ccccc2S1(=O)=O`, the TGI with DMS 114 small cell lung, in the assay on UACC-257 melanoma, with M19-MEL melanoma, with EKVX NSCLC and with SK-OV-3 ovarian was above 100 µM throughout.
As for `COc1cc(CCC(=O)NS(=O)(=O)c2ccccc2)cc(OC)c1OC`, the TGI with DMS 114 small cell lung, in the assay with DMS 273 small cell lung, with UACC-257 melanoma, in the assay with EKVX NSCLC and in the assay with SK-OV-3 ovarian was above 100 µM throughout.
Consider `O=C(Cc1nc2ccccc2s1)C(=O)Nc1ccc(Cl)cc1Cl`, for which the TGI in the assay on DMS 273 small cell lung, in the assay on UACC-257 melanoma, with M19-MEL melanoma and with SK-OV-3 ovarian was above 100 µM each time.
As for `CN(C)NC(=S)NC12CC3CC(CC(C3)C1)C2`, the TGI with DMS 114 small cell lung, in the assay on DMS 273 small cell lung, with UACC-257 melanoma, with M19-MEL melanoma, in the assay on EKVX NSCLC and in the assay on SK-OV-3 ovarian was above 100 µM in each case.
In the case of `COC(=O)C(C(=O)C(=O)Nc1ccc(C)cc1C)c1nc2ccc([N+](=O)[O-])cc2[nH]c1=O` (stereo not given), the TGI in the assay on DMS 114 small cell lung, in the assay on DMS 273 small cell lung, in the assay with UACC-257 melanoma, in the assay with M19-MEL melanoma, with EKVX NSCLC and in the assay with SK-OV-3 ovarian was above 100 µM each time.
